Source: patent US9642835B2, “Modulators of GTPase and use in relevant treatment” (STC.UNM, priority 2010, dated 2017)

Experiments:
[1] = target: T1, wild-type Cdc42 (Homo sapiens, UniProt P60953); experiment: Equilibrium binding assay of BODIPY-FL-GTP; settings: 1.5 nM substrate, 1 mM MgCl2; read-out: IC50, inhibition of fluorescent GTP binding to Cdc42 wt
T1 construct: purchased Cytoskeleton
Procedure: Changes in GTP binding affinity (Kd) and Bmax in the presence of a given compound were measured in multiplex (Cdc42, Cdc42Q61L, Rab2, Rab7, H-Ras and H-RasG12V) and single-plex formats (Rac1, Rac1Q61L and GST-GFP). GTPases and the GST-GFP control were individually bound to glutathione beads overnight at 4° C., washed with HPSE buffer, then resuspended together or assayed individually in the same buffer containing DTT and BSA. Bound GTPases were analyzed by mixing 5 μl protein-bound beads with 2.5-100 nM BODIPY-GTP in a total volume of 10 μl and incubating with rotation at 4° C. for 90 min. DMSO controls and samples treated with 10 μM of each test compound were run in parallel. Bound fluorescent nucleotide was measured using a Cyan ADP flow cytometer. Data were converted to ASCII format using IDLeQuery, exported and analyzed using Prism (GraphPad Software, Inc., San Diego, Calif.) non-linear, one-site binding.
Wild-type GST-Cdc42 (4 μM) was bound to GSH-beads overnight at 4° C. Cdc42 on GSH-beads was depleted of nucleotide by incubating with 10 mM EDTA containing buffer for 20 min at 30° C., washing twice with NP-HPS buffer, then re-suspended in the same buffer containing 1 mM EDTA/or 1 mM MgCl2, 1 mM DTT and 0.1% BSA. […] Samples incubated at 4° C. for 45 min and binding of fluorescent nucleotide to enzyme measured using an Accuri flow cytometer. […]

[2] = system: Dbs (guanine nucleotide exchange factor) on Cdc42 wt; experiment: Effect on Dbs activity, [3H]GDP/GTP exchange; type: biochemical; settings: 10 μM
Procedure: GSH-beads were coupled with Cdc42 wt, washed and incubated with 10 mM EDTA-NP-HPS for 20 min at 30° C. Nucleotide depleted enzyme washed with NP-HPS, and incubated with 2μCi [^3H]GDP in the presence of 1 mM EDTA (in NP-HPS buffer) for 20 min at 30° C. To prevent the dissociation of tritiated guanine nucleotide from the Cdc42, MgCl2 was added to a final concentration 20 mM. [^3H]GDP-Cdc42-beads washed and re-suspended in GDP exchange buffer (NP-HPS with 1 mM EDTA, 5 mM MgCl2, and 1 mM DTT) and 100 μl aliquots loaded in tubes and incubated with vehicle or 10 μM MLS000693334 for 15 min. Effect of the guanine nucleotide exchange factor domain, Dbs on GDP/GTP exchange in the presence and absence of inhibitor was measured after addition of 200 nM His-DBS (DH/PH domain). The GDP/GTP exchange reaction was initiated by addition of 250 nM GTP and incubation samples for 2 min 30 C. The reaction was stopped by transferring samples on ice. Cdc42-beads collected and washed twice with ice cold GDP exchange buffer and measured radioactivity, by loading samples in scintillation vial.

[3] = target: His-Cdc42 binding to GST-PAK-PBD (Homo sapiens, UniProt P60953); experiment: In vitro Cdc42-GTPγS formation PAK-PBD pull-down; type: biochemical; settings: 10 μM inhibitor
Procedure: For analysis of the effect of MLS000693334 on the formation of the GTP-bound form of Cdc42 in vitro, 40 nM His-Cdc42 wt incubated (20 min at 30 C) with various concentration of GTPγS in the presence of 1 mM EDTA containing NP-HPS buffer. Reaction stopped by adding of excess amount of MgCl2. Mixture incubated with 15 μl PAK-PBD/beads (Cytoskeleton Inc., Denver, Colo.) for 1 h. Washed 2× and active Cdc42 analyzed by Western blot using mAb for Cdc42 (Cytoskeleton Inc., Denver, Colo.) and Mouse TrueBlot Ultra: Horseradish Peroxidase anti-mouse IgG (eBioscience. San Diego, Calif.) followed by ECL (Thermo Scientific, Rockford, Ill.).
For in vitro Cdc42 activation measurements, DMSO or an equal volume of SID57578341 in DMSO were incubated for 20 min at 30° C. with 40 nM His-Cdc42 protein and varying concentrations of GTPγS in 1 mM EDTA-containing buffer (NP-HPS). Further nucleotide exchange was inhibited with the addition of excess MgCl2 (60 mM final) and transfer to ice. Activated Cdc42 protein was isolated from solution by adding 15 μl GST-PAK-PBD bound glutathione beads and rotation at 4° C. for 1 h. Activated Cdc42 bound to GST-PAK-PDB was resolved by SDS-PAGE (12% gels) and analyzed by immunoblot using mAb directed against Cdc42 (Cytoskeleton, Inc.) and ECL (Thermo Scientific, Rockford, Ill.). Quantification was by densitometry.

[4] = system: RBL-2H3 cells; experiment: RBL cell morphology, actin and Cdc42 distribution after activation; type: cell-based, rat; settings: 10 μM
Procedure: Live cell microscopy was carried out on RBL-2H3 cells. Cells were grown on coverslips overnight, washed and overlaid with Tyrode's buffer (10 mM Hepes, pH 7.4, 130 mM NaCl, 5 mM KCl, 1.4 mM CaCl2, 1 mM MgCl2, 5.6 mM glucose and 0.1% BSA). Time lapse images were taken after addition of 10 μM MLS000693334 (final concentration) at 60 s intervals for up to 30 min. Activation with Thy-1 cross-linking was performed as described {Surviladze, 1998 #50}. Briefly, RBL cells incubated with OX7 mAb (Santa Cruz Biothechnology) final concentration 50 ug/ml for 1 h at 37 C. The unbound OX7 mAb was washed out with Tyrode's solution and activation initiated by adding anti-mouse IgG (25 ug/ml) (Jackson Immunoresearch Laboratories). Imaging was performed using a Bio-Rad Radiance 2100 confocal microscope equipped with a 60×1.4 NA oil immersion objective equipped with Lasersharp3000 software.
RBL-2H3 cells were grown in RPMI supplemented with 10% fetal bovine serum on cover slips. Semi-confluent cells were washed with Tyrode's solution and incubated with DMSO (vehicle) or 10 μM MLS000693334 for 1 h at 37° C. Inhibitor treated and un-treated cells were stimulated with 1 μg/ml DNP-BSA for 30 min as previously described {Wilson, 1991 #52}. Activation stopped by transferring of samples on ice. […]

T1 sequence (P60953 whole entry): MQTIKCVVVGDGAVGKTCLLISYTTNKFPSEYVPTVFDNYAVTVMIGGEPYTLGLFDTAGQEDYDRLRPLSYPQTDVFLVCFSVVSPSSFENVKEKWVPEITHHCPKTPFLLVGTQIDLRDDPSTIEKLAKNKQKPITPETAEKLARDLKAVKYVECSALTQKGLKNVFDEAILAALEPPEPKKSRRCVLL
Sequence of His-Cdc42 binding to GST-PAK-PBD (P60953 whole entry): as above

COc1ccc(C2CC(c3ccccc3)=NN2c2ccc(S(N)(=O)=O)cc2)cc1 (centres unmarked) [MLS000693334, 4-[3-(4-methoxyphenyl)-5-phenyl-3,4-dihydropyrazol-2-yl]benzenesulfonamide]
IC50 [1]: 0.2 µM
Dbs activity (GDP/GTP exchange) [2]: did not changes Dbs activity
Complex formation of active Cdc42(GTPγS) with PAK-PBD [3]: dramatically reduced
Filopodia formation and cell spreading after cross-linking of Thy-1 [4]: dramatically inhibits
Morphology of resting RBL-2H3 cells [4]: no change in morphology
